# Target: T1, human Kv72+3 channels (Homo sapiens, UniProt O43525+O43526)
# T1 construct: expressed in transfected cells; host or cells: CHO K1 cells, stably expressing
# Assay: patch-clamp set-up using CHO K1 cell lines stably expressing the human Kv72+3 channels
# Type: cell-based
# Details: at a concentration of 3 μM, CHO K1 cells stably expressing human Kv72+3 channels
# Protocol: For example, at a concentration of 3 μM, Compound A4 induces an increase in current amplitude in the order 190%, which is an indication of its potent Kv72+3 activating activity.
smiles,measurement,value
"CC(C)c1nc2ccccc2c(=O)n1NC(=O)[C@@H]1C[C@H]1c1ccccc1 (relative stereo) [Compound A4, (Trans)-2-Phenyl-cyclopropanecarboxylic acid (2-isopropyl-4-oxo-4H-quinazolin-3-yl)-amide]",increase in current amplitude,~190%

# — US20090036473A1, “NOVEL QUINAZOLINONE DERIVATIVES AND THEIR MEDICAL USE” (priority 2006, published 2009)
